Experimental data reported in US9481654B2, “Compositions and methods for inhibition of the JAK pathway” (Rigel Pharmaceuticals, Inc., priority 2006, dated 2016).

These molecules were tested on IFNγ induced ICAM-1 (CD54) up-regulation in A549 lung epithelial cells (JAK/Stat pathway) (assay: A549 Epithelial Line Stimulated with IFNγ (ICAM-1 surface expression, flow cytometry)). Settings: Table III Example 5.
Assay type: cell-based, human
Summary of the method: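 A549 cells (20,000/well, adhered overnight) pre-treated with compound 1 h, then IFNγ 75 ng/mL for 24 h; compound 30 μM–14 nM in 5% FBS, 0.3% DMSO. Surface ICAM-1 stained with APC anti-CD54, geometric mean by flow cytometry; dose-response gives EC50.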

Going from `CCNS(=O)(=O)c1cc(Nc2ncc(C)c(Nc3ccc(CNS(=O)(=O)C4CC4)cc3)n2)ccc1C` [Compound I-186, N4-(4-cyclopropylsulfonylaminomethyl)phenyl-N2-(3-ethylaminosulfonyl-4-methyl)phenyl-5-methyl-2,4-pyrimidinediamine] to `C#CCNS(=O)(=O)c1cc(Nc2ncc(C)c(Nc3ccc(CNS(=O)(=O)C4CC4)cc3)n2)ccc1C` [Compound I-188, N4-(4-cyclopropylsulfonylaminomethyl)phenyl-5-methyl-N2-(4-methyl-3-propargylaminosulfonyl)phenyl-2,4-pyrimidinediamine], the IC50 rises from 1.76 µM to 5.08 µM (2.9-fold). The first is the more potent here.

`Cc1ccc(Nc2ncc(C)c(Nc3ccc(CCNS(=O)(=O)C4CC4)cc3)n2)cc1S(N)(=O)=O` [Compound I-55, N2-(3-aminosulfonyl-4-methyl)phenyl-N4-[4-(2-cyclopropylsulfonylamino)ethyl]phenyl-5-methyl-2,4-pyrimidinediamine] and `Cc1ccc(Nc2ncc(C)c(Nc3ccc(CN(C)S(=O)(=O)C4CC4)cc3)n2)cc1S(N)(=O)=O` [Compound I-126, N2-(3-aminosulfonyl-4-methyl)phenyl-N4-[4-(N-cyclopropylsulfonyl-N-methyl)aminomethyl]phenyl-5-methyl-2,4-pyrimidinediamine] are within 1.5-fold of each other in IC50: 3.88 µM for the first, 5.56 µM for the second.

First: Cc1cnc(Nc2ccc(S(N)(=O)=O)cc2)nc1Nc1cccc(CN(C)S(=O)(=O)C2CC2)c1 [Compound I-124, N2-(4-aminosulfonyl)phenyl-N4-[3-(N-cyclopropylsulfonyl-N-methyl)aminomethyl]phenyl-5-methyl-2,4-pyrimidinediamine]
Second: Cc1cnc(Nc2cccc(S(N)(=O)=O)c2)nc1Nc1cccc(CN(C)S(=O)(=O)C2CC2)c1 [Compound I-120, N2-(3-aminosulfonyl)phenyl-N4-[3-(N-cyclopropylsulfonyl-N-methyl)aminomethyl]phenyl-5-methyl-2,4-pyrimidinediamine]
The IC50 of the first is 2.3-fold higher: 5.72 µM for the first, 2.54 µM for the second. The second is the more potent here.

Compared with `NS(=O)(=O)c1ccc(Nc2ncc(Cl)c(Nc3ccc(CNS(=O)(=O)C4CC4)cc3)n2)cc1` [Compound I-115, N2-(4-aminosulfonyl)phenyl-5-chloro-N4-(4-cyclopropylsulfonylaminomethyl)phenyl-2,4-pyrimidinediamine], `NS(=O)(=O)c1cccc(Nc2ncc(F)c(Nc3ccc(CNS(=O)(=O)C4CCCC4)cc3)n2)c1` [Compound I-69, N2-(3-aminosulfonyl)phenyl-N4-(4-cyclopentylsulfonylaminomethyl)phenyl-5-fluoro-2,4-pyrimidinediamine] is 2.9-fold higher in IC50: 2.72 µM for the first, 7.76 µM for the second. The first is the more potent here.

Compared with `COCCCNS(=O)(=O)c1cccc(Nc2ncc(C)c(Nc3ccc(CNS(=O)(=O)C4CC4)cc3)n2)c1` [Compound I-182, N4-(4-cyclopropylsulfonylaminomethyl)phenyl-N2-[3-(3-methoxypropyl)aminosulfonyl]phenyl-5-methyl-2,4-pyrimidinediamine], `COCCNS(=O)(=O)c1cccc(Nc2ncc(C)c(Nc3ccc(CNS(=O)(=O)C4CC4)cc3)n2)c1` [Compound I-184, N4-(4-cyclopropylsulfonylaminomethyl)phenyl-N2-[3-(2-methoxyethyl)aminosulfonyl]phenyl-5-methyl-2,4-pyrimidinediamine] is 1.6-fold lower in IC50: 2.25 µM for the first, 1.41 µM for the second. The second is the more potent here.

`Cc1cnc(Nc2ccc(S(N)(=O)=O)cc2)nc1Nc1ccc2c(c1)CCN(S(=O)(=O)C1CC1)C2` [II-1, N2-(4-aminosulfonyl)phenyl-N4-[(N-cyclopropylsulfonyl)-1,2,3,4-tetrahydroisoquinolin-6-yl]-5-methyl-2,4-pyrimidinediamine] and `Cc1ccc(Nc2ncc(C)c(Nc3ccc4c(c3)CCN(S(=O)(=O)C3CC3)C4)n2)cc1S(N)(=O)=O` [II-3, N2-(3-aminosulfonyl-4-methyl)phenyl-N4-[(N-cyclopropylsulfonyl)-1,2,3,4-tetrahydroisoquinolin-6-yl]-5-methyl-2,4-pyrimidinediamine] are within 1.5-fold of each other in IC50: 18.3 µM for the first, 12.4 µM for the second.

Compared with `CCNS(=O)(=O)c1cccc(Nc2ncc(C)c(Nc3cccc(CNS(=O)(=O)C4CC4)c3)n2)c1` [Compound I-208, N4-(3-cyclopropylsulfonylaminomethyl)phenyl-N2-(3-ethylaminosulfonyl)phenyl-5-methyl-2,4-pyrimidinediamine], `Cc1cnc(Nc2cccc(S(N)(=O)=O)c2)nc1Nc1cccc(CNS(=O)(=O)C2CC2)c1` [Compound I-51, N2-(3-aminosulfonyl)phenyl-N4-(3-cyclopropylsulfonylaminomethyl)phenyl-5-methyl-2,4-pyrimidinediamine] is 2.2-fold higher in IC50: 1.3 µM for the first, 2.8 µM for the second. The first is the more potent here.

Compared with `CNS(=O)(=O)c1cccc(Nc2ncc(C)c(Nc3ccc(CNS(=O)(=O)C4CC4)cc3)n2)c1` [Compound I-161, N4-(4-cyclopropylsulfonylaminomethyl)phenyl-5-methyl-N2-(3-methylaminosulfonyl)phenyl-2,4-pyrimidinediamine], `CNS(=O)(=O)c1ccc(Nc2ncc(C)c(Nc3cccc(CNS(=O)(=O)C4CC4)c3)n2)cc1` [Compound I-207, N4-(3-cyclopropylsulfonylaminomethyl)phenyl-5-methyl-N2-(4-methylaminosulfonyl)phenyl-2,4-pyrimidinediamine] is 4-fold lower in IC50: 24.4 µM for the first, 6.11 µM for the second.

`CCS(=O)(=O)NCCc1ccc(Nc2nc(Nc3cccc(S(N)(=O)=O)c3)ncc2C)cc1` [Compound I-39, N2-(3-aminosulfonyl)phenyl-N4-[4-(2-ethylsulfonylamino)ethyl]phenyl-5-methyl-2,4-pyrimidinediamine] and `CCS(=O)(=O)NCc1cccc(Nc2nc(Nc3ccc(C)c(S(N)(=O)=O)c3)ncc2F)c1` [Compound I-13, N2-(3-aminosulfonyl-4-methyl)phenyl-N4-(3-ethylsulfonylaminomethyl)phenyl-5-fluoro-2,4-pyrimidinediamine] are within 1.5-fold of each other in IC50: 3.75 µM for the first, 3.63 µM for the second.

First: Cc1ccc(Nc2ncc(C)c(Nc3ccc(CNS(=O)(=O)C4CC4)cc3)n2)cc1S(=O)(=O)NC(C)C [Compound I-189, N4-(4-cyclopropylsulfonylaminomethyl)phenyl-N2-(3-isopropylaminosulfonyl-4-methyl)phenyl-5-methyl-2,4-pyrimidinediamine]
Second: CNS(=O)(=O)c1cc(Nc2ncc(C)c(Nc3ccc(CNS(=O)(=O)C4CC4)cc3)n2)ccc1C [Compound I-185, N4-(4-cyclopropylsulfonylaminomethyl)phenyl-5-methyl-N2-(4-methyl-3-methylaminosulfonyl)phenyl-2,4-pyrimidinediamine]
The IC50 of the first is 2.4-fold lower: 1.72 µM for the first, 4.1 µM for the second.

`Cc1cnc(Nc2cccc(S(=O)(=O)NCc3ccccc3)c2)nc1Nc1ccc(CNS(=O)(=O)C2CC2)cc1` [Compound I-154, N2-(3-benzylaminosulfonyl)phenyl-N4-(4-cyclopropylsulfonylaminomethyl)phenyl-5-methyl-2,4-pyrimidinediamine] and `Cc1cnc(Nc2cccc(S(N)(=O)=O)c2)nc1Nc1ccc(CNS(=O)(=O)C2CC2)c(Cl)c1` [Compound I-119, N2-(3-aminosulfonyl)phenyl-N4-(3-chloro-4-cyclopropylsulfonylaminomethyl)phenyl-5-methyl-2,4-pyrimidinediamine] are within 1.5-fold of each other in IC50: 6.35 µM for the first, 4.42 µM for the second.

`Cc1cnc(Nc2cccc(S(N)(=O)=O)c2)nc1Nc1ccc2c(c1)CN(S(=O)(=O)C1CC1)C2` [II-8, N2-(3-Aminosulfonyl-phenyl)-N4-[(2-cyclopropylsulfonyl)-isoindolin-5-yl]-5-methyl-2,4-pyrimidinediamine] was tested, and the IC50 was 17.8 µM.
